Results: PMC4925160, “Mode of action of DNA-competitive small molecule inhibitors of tyrosyl DNA phosphodiesterase 2” (Biochemical Journal, 2016)

Target: T1, tyrosyl-DNA phosphodiesterase 2 (hTDP2-CAT) (Homo sapiens, UniProt O95551, C273S)
T1 construct: gene TDP2; catalytic domain, residues 113–362
T1 sequence (O95551 113-362 C273S): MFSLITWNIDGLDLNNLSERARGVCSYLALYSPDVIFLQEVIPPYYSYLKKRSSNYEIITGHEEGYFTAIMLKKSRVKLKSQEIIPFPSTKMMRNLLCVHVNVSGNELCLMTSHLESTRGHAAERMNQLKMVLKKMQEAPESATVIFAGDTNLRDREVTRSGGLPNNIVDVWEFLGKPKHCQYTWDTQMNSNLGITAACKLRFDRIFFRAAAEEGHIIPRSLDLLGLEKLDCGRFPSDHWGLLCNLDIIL
Assay: fluorescence-based […]'-phosphotyrosyl oligonucleotide enzyme assay
Format: biochemical

IC50: 489 nM
Compound: N#Cc1ccc2cc3c(=O)[nH]c(=O)nc-3n(-c3cccc(CO)c3)c2c1 [compound 149, 149]
